Results published in patent US6191115A, “C-terminus modified heptapeptide LHRH analogs” (Abbott Laboratories, priority 1999, dated 2001).
Non-standard residues stand in square brackets, D forms with d. Residues, ends and D or L forms follow the SMILES beside them. *: point of attachment. NH(2-pyrrolidin-1-ylethyl) = C1CCN(CCN*)C1; NHCH2CH2(piperidin-1-yl) = C1CCN(CCN*)CC1; dPhe(4-Cl) = N[C@H](Cc1ccc(Cl)cc1)C(=O)O; d2Nal = N[C@H](Cc1ccc2ccccc2c1)C(=O)O; NMeY = CN[C@@H](Cc1ccc(O)cc1)C(=O)O; d3Pal = N[C@H](Cc1cccnc1)C(=O)O; Nicotinoyl = O=C(c1cccnc1)*; X3 = O=C1CCCN1CCCN*; X8 = Cn1cccc1CCN*; NHBu = CCCCN*

What follows are compounds tested against T1, LH release from rat pituitary cells (Rattus norvegicus, UniProt P30969) (assay: in vitro inhibition of LH release from rat pituitary cells (pA2)). Settings: pA2 = negative logarithm of antagonist concentration required to shift the response curve of the agonist leuprolide to two-fold higher concentration.
T1 sequence (P30969 1-327): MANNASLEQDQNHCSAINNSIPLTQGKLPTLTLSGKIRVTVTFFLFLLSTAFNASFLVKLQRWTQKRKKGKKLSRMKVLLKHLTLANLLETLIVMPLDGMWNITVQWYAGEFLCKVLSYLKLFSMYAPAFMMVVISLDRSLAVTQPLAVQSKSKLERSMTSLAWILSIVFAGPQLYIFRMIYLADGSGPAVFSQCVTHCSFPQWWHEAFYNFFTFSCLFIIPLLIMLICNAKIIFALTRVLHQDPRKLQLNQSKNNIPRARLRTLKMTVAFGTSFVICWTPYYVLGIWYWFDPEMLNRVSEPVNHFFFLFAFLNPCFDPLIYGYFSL
Assay type: cell-based
Experimental: Representative compounds of the present invention were evaluated in vitro for inhibition of LH release from rat pituitary cells (pA2). Methods for the assay procedures arc described by F. Haviv, et al. J. Med. Chem., 32:2340-2344 (1989). Values of pA2 are the negative logarithms of the concentration of the particular antagonist test compound required to shift the response curve produced by the agonist leuprolide to two-fold higher concentration. Typically values of 7.0 or greater are indicative of good LHRH antagonist potency, with values of 8.0 or greater being preferred. Leuprolide LHRH agonist, disclosed and claimed in U.S. Pat. No. 4,005,063, has the structure 5-oxo-Pro^1 -His^2 -Trp^3 -Ser^4 -Tyr^5 -D-Leu^6 -Leu^7 -Arg^8 -Pro^9 -NHEt.

Q: With `CC(=O)N[C@H](Cc1ccc2ccccc2c1)C(=O)N[C@H](Cc1ccc(Cl)cc1)C(=O)N[C@H](Cc1cccnc1)C(=O)N[C@@H](CO)C(=O)N(C)[C@@H](Cc1ccc(O)cc1)C(=O)N[C@H](CCCCNC(=O)c1cccnc1)C(=O)N[C@@H](CC(C)C)C(=O)NCCN1CCCC1` [Example 3, NAcD2Nal-D4ClPhe-D3Pal-Ser-NMeTyr-DLys(Nic)-Leu-NH--(CH2)2 -(1-pyrrolidine)] (Ac-[d2Nal][dPhe(4-Cl)][d3Pal]S[NMeY][dK](Nicotinoyl)L-{NH(2-pyrrolidin-1-ylethyl)}) as the compound, how does the “LHRH antagonist potency (pA2)” value read?
A: 11.27

Q: For `CC(=O)N[C@H](Cc1ccc2ccccc2c1)C(=O)N[C@H](Cc1ccc(Cl)cc1)C(=O)N[C@H](Cc1cccnc1)C(=O)N[C@@H](CO)C(=O)N(C)[C@@H](Cc1ccc(O)cc1)C(=O)N[C@H](CCCCNC(=O)c1cccnc1)C(=O)N[C@@H](CC(C)C)C(=O)NCCCN1CCCC1=O` [Example 33, NAcD2Nal-D4ClPhe-D3Pal-Ser-NMeTyr-DLys(Nic)-Leu-NH--CH2 CH2 CH2 -(1-pyrrolidin-2-one)] (Ac-[d2Nal][dPhe(4-Cl)][d3Pal]S[NMeY][dK](Nicotinoyl)L-X3), which “LHRH antagonist potency (pA2)” value is on record?
A: 8.30

Q: How did the “LHRH antagonist potency (pA2)” value turn out when `CC(=O)N[C@H](Cc1ccc2ccccc2c1)C(=O)N[C@H](Cc1ccc(Cl)cc1)C(=O)N[C@H](Cc1cccnc1)C(=O)N[C@@H](CO)C(=O)N(C)[C@@H](Cc1ccc(O)cc1)C(=O)N[C@H](CCCCNC(=O)c1cccnc1)C(=O)N[C@@H](CC(C)C)C(=O)NCCc1cccn1C` [Example 29, NAcD2Nal-D4ClPhe-D3Pal-Ser-NMeTyr-DLys(Nic)-Leu-NH--CH2 --CH2 -[2-(1-methyl)pyrrole]] (Ac-[d2Nal][dPhe(4-Cl)][d3Pal]S[NMeY][dK](Nicotinoyl)L-X8) was run?
A: 8.30

Q: `CCCCNC(=O)[C@H](CC(C)C)NC(=O)[C@@H](CCCCNC(=O)c1cccnc1)NC(=O)[C@H](Cc1ccc(O)cc1)N(C)C(=O)[C@H](CO)NC(=O)[C@@H](Cc1cccnc1)NC(=O)[C@@H](Cc1ccc(Cl)cc1)NC(=O)[C@@H](Cc1ccc2ccccc2c1)NC(C)=O` [Example 1, NAcD2Nal-D4ClPhe-D3Pal-Ser-NMeTyr-DLys(Nic)-Leu-NH-nBu] (Ac-[d2Nal][dPhe(4-Cl)][d3Pal]S[NMeY][dK](Nicotinoyl)L-NHBu) was tested. Which “LHRH antagonist potency (pA2)” value did it give?
A: 7.90

Q: How did the “LHRH antagonist potency (pA2)” value turn out when `CC(=O)N[C@H](Cc1ccc2ccccc2c1)C(=O)N[C@H](Cc1ccc(Cl)cc1)C(=O)N[C@H](Cc1cccnc1)C(=O)N[C@@H](CO)C(=O)N(C)[C@@H](Cc1ccc(O)cc1)C(=O)N[C@H](CCCCNC(=O)c1cccnc1)C(=O)N[C@@H](CC(C)C)C(=O)NCCN1CCCCC1` [Example 26, NAcD2Nal-D4ClPhe-D3Pal-Ser-NMeTyr-DLys(Nic)-Leu-NH--CH2 --CH2 -(1-piperidine)] (Ac-[d2Nal][dPhe(4-Cl)][d3Pal]S[NMeY][dK](Nicotinoyl)L-{NHCH2CH2(piperidin-1-yl)}) was run?
A: 9.30
